The OPERA property sets (Mansouri et al. 2018)

| SMILES | boiling point | melting point | also measured |
| --- | --- | --- | --- |
| CC1CCCC(O)C1 (configuration not stated) | 163 °C |  | log10 Henry constant (atm·m³/mol): -5.44; log10 vapour pressure (mmHg): -0.32 |
| COC(=O)c1ccc(O)cc1 |  | 131 °C | log10 Koa: 8.57 |
| O=[N+]([O-])c1ccc(F)cc1F | 207 °C | 9.8 °C |  |
| C=Cc1ccc(C(=O)O)cc1 |  | 144 °C |  |
| CC[C@]1(O)CC[C@H]2[C@@H]3CCC4=CCCC[C@@H]4[C@H]3CC[C@@]21C |  | 77 °C |  |
| O=C(O)CCCCC(=O)O | 338 °C | 153 °C | log10 vapour pressure (mmHg): -6.5; ready biodegradability: readily biodegradable |
| CC(C)C1=CC2=CC[C@@H]3[C@](C)(CCC[C@@]3(C)C(=O)O)[C@H]2CC1 |  | 174 °C | ready biodegradability: not readily biodegradable; log10 BCF (fish): 1.97 |
| OC1c2ccccc2CCc2ccccc21 |  | 92 °C |  |
| OCc1ccncc1 |  | 53 °C |  |
| Nc1ccc(C(=O)Oc2ccccc2)c(O)c1 |  | 153 °C |  |
| CC(C)=CCCc1ccoc1 | 186 °C |  |  |
| CC1CNCC(C)C1 (configuration not stated) | 144 °C |  |  |
| OCCN1CCN(CCCN2c3ccccc3Sc3ccc(Cl)cc32)CC1 |  | 97 °C |  |
| O=C(O)c1ccccn1 |  | 136 °C | ready biodegradability: readily biodegradable |
| Cc1csc(S)n1 |  | 89.3 °C |  |
| COC(=O)C1CC(=O)N(C)C1 (configuration not stated) |  | 15 °C |  |
| C=C(C)C(CC)CC | 110 °C | -113 °C |  |
| Cc1c(N)c(=O)n(-c2ccccc2)n1C |  | 109 °C |  |
| C=CCNC(=O)NCC=C |  | 91.5 °C |  |
| CC(C)(C(=O)c1cccnc1)c1cccnc1 |  | 50.5 °C |  |
| Nc1ccc(/N=N/c2ccc(S(N)(=O)=O)cc2)c(N)c1 |  | 250 °C |  |
| Oc1ccc2c(c1)[C@@]13CCCC[C@@]1(O)[C@@H](C2)N(CC1CCC1)CC3 |  | 216 °C |  |
| Clc1ccc2cc(Cl)c(Cl)c(Cl)c2c1 |  |  | log10 Koa: 8.35 |
| Cc1cc(-c2ccccc2)nnc1NCCN1CCOCC1 |  | 122 °C |  |
| CCC(=O)CC(=O)CC |  |  | ready biodegradability: readily biodegradable |

| SMILES | boiling point | melting point | also measured |
| --- | --- | --- | --- |
| FC(F)(F)CCBr | 63.5 °C |  |  |
| Cc1ccc(C(C)C)c(O)c1 | 232 °C | 51.5 °C | log10 vapour pressure (mmHg): -2.66; ready biodegradability: not readily biodegradable |
| Clc1ccc(Cn2cncn2)cc1Cl |  | 46.5 °C |  |
| c1ccc2[nH]ccc2c1 | 254 °C | 52.5 °C | log10 vapour pressure (mmHg): -1.91; ready biodegradability: readily biodegradable |
| CCOc1ccc(C=O)cc1OC |  | 64.5 °C |  |
| CS/C(C)=N/OC(=O)N(C)SN(C)C(=O)O/N=C(\C)SC |  | 173 °C | log10 Koc (L/kg): 2.54; log10 vapour pressure (mmHg): -4.15 |
| NC(=O)Cc1ccccc1 |  | 157 °C |  |
| CCCCC |  | -130 °C | log10 Henry constant (atm·m³/mol): 0.0969; log10 Koa: 1.96; log10 biodegradation half-life (days): 0.699; log10 vapour pressure (mmHg): 2.71; ready biodegradability: readily biodegradable |
| Cc1cc(N)cc(C)n1 | 246 °C | 192 °C |  |
| C(CCOCC1CO1)COCC1CO1 (configuration not stated) | 266 °C |  | ready biodegradability: not readily biodegradable |
| O=C(O)c1ccc(Cl)c(Cl)c1 |  |  | ready biodegradability: not readily biodegradable; log10 BCF (fish): 0.36 |
| CC1=CCC(C(=O)O)C1(C)C (configuration not stated) | 242 °C | 40.5 °C |  |
| ClC(Cl)(Cl)C(Cl)(Cl)Cl |  | 187 °C | log10 Henry constant (atm·m³/mol): -2.41; log10 Koa: 4.47; log10 vapour pressure (mmHg): -0.678; ready biodegradability: not readily biodegradable; log10 BCF (fish): 2.71; log10 biotransformation half-life (days) (fish): 0.76 |
| CC(C)C12CCC(C)(CC1)O2 | 174 °C | 1 °C | log10 vapour pressure (mmHg): 0.286 |
| CCC(C)CC(O)CC (configuration not stated) | 172 °C | -91.2 °C |  |
| Cc1c(NC(=O)C(C)N(C)C)c(=O)n(-c2ccccc2)n1C (configuration not stated) |  | 181 °C |  |
| CC(C)C(N)=O | 218 °C | 128 °C |  |
| C=C(C)c1ccc(C)cc1 | 185 °C | -20 °C |  |
| c1ccc2c(c1)[nH]c1cnccc12 |  | 199 °C |  |
| Cc1ccc(Br)cc1N |  | 33 °C |  |
| Fc1ccc(Oc2ccnc3cc(Cl)cc(Cl)c23)cc1 |  | 107 °C | log10 vapour pressure (mmHg): -6.82 |
| C=CCNC(N)=S |  | 78 °C |  |
| CC(=O)N=c1sc(S(N)(=O)=O)nn1C |  | 214 °C |  |
| CC(=O)CO | 146 °C | -17 °C | ready biodegradability: readily biodegradable |
| O=c1ccc2ccc(O)cc2o1 |  | 230 °C |  |
